Laboratory results published in patent publication US20250114416A1, “ANTIVIRAL C[…] EXTRACT AND STEROID COMPOUND AS ACTIVE INGREDIENTS” (priority 2022, published 2025).
Like-named read-outs stand apart in the source and are kept apart here.

Key:
Adenovirus type 5 [1] = details: examples using ginseng (Table 1); lung tissue of K18-ACE2 TG mice, oral, three days after infection; non-treated control = 100
Adenovirus type 5 [2] = assay type: cell-based; details: examples using ginseng (Table 1); Vero-E6 cells, 100 μg/ml pretreatment 2 h, 50 pfu/well, 72 h; non-treated control = 100

SMILES	Relative virus titer Adenovirus type 5 (Adenovirus type 5 [1])	Relative virus titer Adenovirus type 5 (Adenovirus type 5 [2])
C[C@]12CCC(=O)C=C1CC[C@@H]1[C@@H]2[C@@H](O)C[C@@]2(C)[C@H]1CC[C@]2(O)C(=O)CO [Comparative Example 5, Hydrocortisone]	101 ± 1.9	103 ± 1.9
C[C@@H]1C[C@H]2[C@@H]3CCC4=CC(=O)C=C[C@]4(C)[C@@]3(F)[C@@H](O)C[C@]2(C)[C@@]1(O)C(=O)CO [Comparative Example 4, Dexamethasone]	102 ± 1.9	102 ± 1.9
C[C@]12C=CC(=O)C=C1CC[C@@H]1[C@@H]2[C@@H](O)C[C@@]2(C)[C@H]1CC[C@]2(O)C(=O)CO [Comparative Example 6, Prednisolone]	102 ± 1.9	102 ± 1.9
C[C@]12C=CC(=O)C=C1CC[C@H]1[C@@H]3C[C@@H](O)[C@](O)(C(=O)CO)[C@@]3(C)C[C@H](O)[C@@]12F [Comparative Example 7, Triamcinolone]	101 ± 1.9	102 ± 1.9
